The subject of test [1] is p70. Put plainly: p70 phosphorylation, mTor pathway (Western blotting). Particulars: PC-3 and LS174T cells. Type of test: cell-based. As for the experimental part:
(§1) Biochemistry. Western blotting: Cells were lysed in the appropriate volume of lysis buffer (50 mM HEPES, 100 mM NaCl, 2 mM EDTA, 1% glycerol, 50 mM NaF, 1 mM Na3VO4, 1% Triton X-100, with protease inhibitors). The following antibodies were used: HSD17B4 (GeneTex, GTX103864), AMPK (Cell Signaling, 2532), pAMPK (Cell Signaling, 2535), ACC (Cell Signaling, 3676), pACC (Cell Signaling, 11818), p^70 (Cell Signaling, 2708), p-p^70 (Cell Signaling, 9914), S6 (Cell Signaling, 2217), pS6 (Cell Signaling, 4858), MCCA (GeneTex, GTX110062), tubulin (Hybridoma Bank, E7), Actin (Sigma, A1978), His-tag (BD Pharmingen, 552564).
For orientation: In western blotting, separated proteins are transferred to a membrane and probed.

For test [2], the system named is LS174T colon cancer cells. Put plainly: Cancer cell proliferation (Vi-Cell viability and number). Type of test: cell-based. Particulars: 10 μM of compound. As for the experimental part: (§2) Cell Culture. LS74T colon cancer cells were cultured in MEM/EBSS (Hyclone SH30024) and PC-3 prostate cancer cells were cultured in DMEM/F-12 HAM Mixture (Sigma D8437) containing 10% Fetal Bovine Serum (Atlanta Biological S11150). Cells (3.5×10^4 cells per well) were split into 12-well plates. After 24 h, 10 μM of each compound were added to each well. DMSO was used as a control. Each experiment was done in triplicate. Cell viability and number were analyzed using the Vi-Cell XR Cell Viability Analyzer (Beckman Coulter). To knock-down HSD17B4 levels, PC-3 and LS174 cell lines were infected with lenti-virus carrying pLKO.1-control shRNA and pLKO.1-HSD17B4b shRNA, respectively. Control shRNA and HSD17B4b shRNA cloned in pLKO.1 vectors with puromycin-resistance selection marker were purchased from Sigma. Lentiviral stocks were prepared as previously described (Yu, 2012).

Test [3] has as its system PC-3 prostate cancer cells. Described as above. Type of test: cell-based. Particulars: 10 μM of compound. As for the experimental part: as §2
In test [4] the test system is AMPK. Put plainly: AMPK activation (levels of phosphorylated AMPK, Western blotting). The class given is cell-based. The method, then:
as §1

In test [5] the test system is DLD1 colon cancer cells. Put plainly: Seahorse XF assay. The class given is cell-based. An excerpt:
(§3) We further characterized the effects of cytisine-linked isoflavonoid 10c on energy metabolism using a Seahorse XF assay (FIG. 4D-F) that measured oxygen consumption rate (OCR), which was an indicator of mitochondrial respiration, and measured extracellular acidification rate (ECAR), which was largely the result of glycolysis. […] Similar results were found in DLD-1 colon cancer cells and PC-3 prostate cancer cells (FIGS. 8 and 9). These OCR findings were consistent with the prior evaluation of these cytisine-linked isoflavonoids that targeted the hydratase activity in HSD17B4, inhibited VLCFA beta-oxidation, depressed acetyl CoA generation, decreased the ratio of ATP/AMP, and triggered AMPK activation (FIG. 5).
(§4) Seahorse assay: 3×10^4 cells were seeded in XF96 Cell Culture microplate (80 μL of 3.75×10^5 cells/m:). On the next day, cells were treated with DMSO or inhibitors and analyzed using the Seahorse analyzer in Redox Metabolism Shared Resource Facility (RM SRF) at the Markey Cancer Center.

Test [6] concerns PC-3 prostate cancer cells. In words: Seahorse XF assay. The class given is cell-based. Particulars: PC-3 cells.
Source text: as §3, §4

Test [7] addresses T1, hydratase activity of HSD17B4 (Homo sapiens, UniProt P51659).
T1 construct: His-tag; made in house; host or cells: E. coli BL21 (pET28)
T1 sequence (P51659 1-736): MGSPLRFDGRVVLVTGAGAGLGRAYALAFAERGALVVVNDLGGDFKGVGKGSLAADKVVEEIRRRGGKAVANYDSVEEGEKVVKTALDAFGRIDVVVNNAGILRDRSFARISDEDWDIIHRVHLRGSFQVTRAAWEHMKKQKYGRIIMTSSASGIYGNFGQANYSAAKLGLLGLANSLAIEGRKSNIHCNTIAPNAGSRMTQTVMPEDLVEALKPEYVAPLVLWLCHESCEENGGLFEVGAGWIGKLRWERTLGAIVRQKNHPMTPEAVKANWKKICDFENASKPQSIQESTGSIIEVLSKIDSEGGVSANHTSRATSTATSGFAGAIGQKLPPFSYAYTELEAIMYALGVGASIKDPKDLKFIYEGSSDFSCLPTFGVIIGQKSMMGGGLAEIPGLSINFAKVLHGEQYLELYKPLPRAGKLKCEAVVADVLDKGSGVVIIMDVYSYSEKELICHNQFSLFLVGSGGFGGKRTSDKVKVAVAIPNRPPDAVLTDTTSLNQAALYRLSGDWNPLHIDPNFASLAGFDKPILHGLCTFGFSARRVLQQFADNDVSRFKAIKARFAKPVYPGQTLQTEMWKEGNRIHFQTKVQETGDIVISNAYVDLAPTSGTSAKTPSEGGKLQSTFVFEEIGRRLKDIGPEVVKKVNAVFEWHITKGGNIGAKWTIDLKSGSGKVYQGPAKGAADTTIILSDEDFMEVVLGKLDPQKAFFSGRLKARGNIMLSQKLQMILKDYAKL
Put plainly: HSD17B4 hydratase assay (crotonoyl CoA substrate). The class given is biochemical. The text has this: We acquired further evidence along these lines through studies using the N-terminal α,β-dehydrogenase and C-terminal hydratase fragments of HSD17B4 as well as the full-length protein. We evaluated the α,β-dehydrogenase activity using DL-3-hydroxylbutyryl-CoA as a substrate and the conversion of NAD^+ to NADH as a readout. We concomitantly measured the hydratase activity using crotonoyl-CoA as a substrate and the diminished ultraviolet absorption of the α,β-unsaturated thioester chromophore as readout. The full-length protein, as expected, had both enzyme activities (FIGS. 7A and 7B). The C-terminal-truncated fragments N318 and N634 but not the N-terminal-truncation fragment C919 had α,β-dehydrogenase activity (FIG. 7A). The C-terminal fragment N634 and the N-terminal fragment C919, but not the C-terminal fragment N318, had hydratase activity (FIG. 7B), as summarized in FIG. 3A.
The enzymatic activities of HSD17B4 were analyzed using the method reported by Novikov et al. (J. Biol. Chem., 1994, 269, 27125). […] The reaction was quantified by measuring the fluorescent product NADH (excitation: 340 nm; emission 460 nm). […] The reaction was quantified by measuring the remaining substrate using absorbance at 280 nm.

`O=c1c(-c2ccc(Cl)cc2)coc2cc(OCCN3C[C@@H]4C[C@@H](C3)c3cccc(=O)n3C4)ccc12` [Compound 10c, (1 S,5S)-3-(2-((3-(4-chlorophenyl)-4-oxo-4H-chromen-7-yl)oxy)ethyl)-3,4,5,6-tetrahydro-1H-1,5-methanopyrido[1,2-a][1,5]diazocin-8(2H)-one]: the “phosphorylation of p70” value in test [1] was “inhibited the phosphorylation”. In test [2], the “proliferation of LS174T cells” value is “significantly inhibited the proliferation”. Besides, the “proliferation of PC-3 cells” value in test [3] is listed as “significantly inhibited the proliferation”. The AMPK activation entry in test [4] (LS174T colon cancer cells) and in test [4] (PC-3 prostate cancer cells) was “activated AMPK” throughout. Besides, in test [5], the ATP production result is given as “reduced”. Also, the respiration rate entry in test [5] and in test [6] was “reduced respiration rate” throughout. In addition, the “effect on hydratase activity” value in test [7] is “significantly inhibited”.

The record behind these values is patent US10188743B2, “Cytisine-linked isoflavonoid antineoplastic agents for the treatment of cancer” (UNIVERSITY OF KENTUCKY RESEARCH FOUNDATION, priority 2016, dated 2019).
